Laboratory results published in US20230338349A1, “LOW DOSE REGIMEN AND FORMULATION OF A 5-METHYL-1,2,4-OXADIAZOL-3-YL COMPOUND” (Eli Lilly and Company, priority 2020, published 2023).

Assay: Plasma concentration of compound of Formula I in the PET occupancy study
Format: in vivo
Details: human, healthy subjects; for concentration at 0.5 h: approx. 0.5 h; for concentration at 1 h: approx. 1 h; for concentration at 2 h: approx. 2 h; for concentration at 3 h: approx. 3 h; for concentration at 4 h: approx. 4 h; for concentration at 5 h: approx. 5 h; for concentration at 6 h: approx. 6 h; for concentration at 8 h: approx. 8 h; for concentration at 12 h: approx. 12 h; for concentration at 24 h: approx. 24 h
Protocol: Healthy subjects are assigned to 1 of 4 cohorts with 4 subjects in each cohort completing the study. All subjects undergo one baseline PET scan and two post-dose PET scans. A baseline PET scan is performed from up to approximately 14 days before dosing of the compound of Formula I. Overall, each subject receives a single dose of the compound of Formula I and 3 administrations of the [^18F]LSN3316612 PET tracer. Dosing of the compound of Formula I occurs after completion of the baseline PET scan. Scans are conducted at approximately 2 and 24 hours post-dose for the 0.25 mg and 5 mg doses of the compound of Formula I, and at approximately 2 and 24 hours or 30 and 54 hours post-dose for the 1 mg dose of the compound of Formula I. Dynamic PET data of the brain are acquired over 120 min immediately following tracer injection. EO is summarized by the compound of Formula I dose and approximate scanning time.
The compound of Formula I is administered orally in capsule formulation for doses≥3 mg. For doses lower than 3 mg, the compound of Formula I is weighed into a suitable container and dissolved in an appropriate volume of degassed Sprite® or diluent.
Arterial blood samples are collected from all subjects during each PET scan to measure radioactivity to provide input for the PET tracer kinetic analysis. Venous blood samples are collected following dosing of compound of Formula I to measure plasma concentrations of compound of Formula I using a validated liquid chromatography with tandem mass spectrometry assay.

CC(=O)Nc1nc(F)c(CN2CC[C@H](OCc3noc(C)n3)C[C@@H]2C)s1 [compound of Formula I, N-[4-fluoro-5-[[(2S,4S)-2-methyl-4-[(5-methyl-1,2,4-oxadiazol-3-yl)methoxy]-1-piperidyl]methyl]thiazol-2-yl]acetamide]
concentration at 0.5 h (single oral dose 0.25 mg): 0.934 ng/mL
concentration at 1 h (single oral dose 0.25 mg): 0.595 ng/mL
concentration at 2 h (single oral dose 0.25 mg): 0.373 ng/mL
concentration at 3 h (single oral dose 0.25 mg): 0.391 ng/mL
concentration at 4 h (single oral dose 0.25 mg): 0.367 ng/mL
concentration at 5 h (single oral dose 0.25 mg): 0.39 ng/mL
concentration at 6 h (single oral dose 0.25 mg): 0.357 ng/mL
concentration at 8 h (single oral dose 0.25 mg): 0.294 ng/mL
concentration at 12 h (single oral dose 0.25 mg): 0.213 ng/mL
concentration at 24 h (single oral dose 0.25 mg): 0.107 ng/mL
concentration at 0.5 h (single oral dose 1 mg): 6.29 ng/mL
concentration at 1 h (single oral dose 1 mg): 6.24 ng/mL
concentration at 2 h (single oral dose 1 mg): 5.75 ng/mL
concentration at 3 h (single oral dose 1 mg): 4.97 ng/mL
concentration at 4 h (single oral dose 1 mg): 4.28 ng/mL
concentration at 5 h (single oral dose 1 mg): 3.87 ng/mL
concentration at 6 h (single oral dose 1 mg): 3.08 ng/mL
concentration at 8 h (single oral dose 1 mg): 2.45 ng/mL
concentration at 12 h (single oral dose 1 mg): 1.42 ng/mL
concentration at 24 h (single oral dose 1 mg): 0.412 ng/mL
concentration at 30 h (single oral dose 1 mg, approx. 30 h): 0.222 ng/mL
concentration at 54 h (single oral dose 1 mg, approx. 54 h): 0.0735 ng/mL
concentration at 0.5 h (single oral dose 5 mg): 32.4 ng/mL
concentration at 1 h (single oral dose 5 mg): 30.7 ng/mL
concentration at 2 h (single oral dose 5 mg): 36 ng/mL
concentration at 3 h (single oral dose 5 mg): 31.9 ng/mL
concentration at 4 h (single oral dose 5 mg): 31.5 ng/mL
concentration at 5 h (single oral dose 5 mg): 30.6 ng/mL
concentration at 6 h (single oral dose 5 mg): 25.3 ng/mL
concentration at 8 h (single oral dose 5 mg): 17.8 ng/mL
concentration at 12 h (single oral dose 5 mg): 12.5 ng/mL
concentration at 24 h (single oral dose 5 mg): 3.07 ng/mL
